Reference: patent publication US12344863B2, “Method of producing stem cell-derived endothelial cells and uses thereof” (Emory University, priority 2016, dated 2025)

Legend:
hESCs (H9) = assay: Mesodermal differentiation of hPSCs with CHIR99021 (qRT-PCR, flow cytometry); type: cell-based, human
Procedure: A clinically compatible stepwise protocol was developed which follows endothelial development (FIG. 1A). To develop a fully defined system, KnockOut™ Serum Replacement substituted for animal serum and feeder cells. As a first step, two coating materials were compared (collagen and Matrigel™), and induced differentiation of hPSCs into the mesodermal lineage using CHIR99021, a GSK3β inhibitor which mimics Wnt activation. hESCs (H9) were plated onto dishes coated with 0.01% collagen or 10% Matrigel™ and were cultured for 3, 5, and 7 days in hESC medium with or without 3 µM CHIR99021. […] Flow cytometry analyses confirmed that the percentage of KDR+ cells was highest (51.2±4.3%) under these conditions.
The hESCs (H1, H7, and H9) and hiPSCs (BJ1 and PGP1 obtained from Dr. George Daley) were cultured in mTeSR™ 1 (STEMCELL Technologies) on 5% matrigel at 37° C., 5% CO2. For directed differentiation, enzymatically dissociated clumps of hPSCs (lower than passage 60) were cultured on 0.01% collagen-coated plates in DMEMF-12 including 20% Serum Replacement (SR) with or without addition of specific differentiation factors for 7-10 days. hPSCs were cultured on collagen coated plates for an additional 14 days.

[1] = test system: mesodermally differentiated hPSCs; assay: Endothelial differentiation of mesodermally differentiated hPSCs with or without DLL4 (qRT-PCR, flow cytometry); type: cell-based, human
Excerpt: Flow cytometric analyses also confirmed increases in PECAM1, CDH5, and VWF (FIG. 1D) and decreases in PTPRC (CD45), CD34, KIT (CD117), and PROM1 (CD133). […] Similar results were found in three hESC lines (H1, H7, and H9) and two hiPSC lines (BJ1 and PGP1) by flow cytometry and qRT-PCR. […] Immunocytochemistry confirmed expression of EC markers VWF and CDH5 as well.

Compound | percentage of KDR+ cells (hESCs (H9); hESCs (H9), collagen coating, 3 µM CHIR99021, 3 days, flow cytometry) [%] | POU5F1 (OCT4) expression (hESCs (H9); qRT-PCR) | expression of definitive ectoderm (SOX1) and endoderm (FOXA2) markers (hESCs (H9); qRT-PCR) | T (Brachyury) and KDR transcripts (hESCs (H9); qRT-PCR, collagen coating and CHIR99021 treatment for 3 days, vs Matrigel, 5 and 7 days, no CHIR99021) | PECAM1, CDH5, and VWF by flow cytometry ([1]; day 14, with vs without DLL4) | PTPRC (CD45), CD34, KIT (CD117), and PROM1 (CD133) by flow cytometry ([1]; day 14, with vs without DLL4) | KDR, PECAM1, CDH5 and VWF expression ([1]; qRT-PCR, day 14, addition of DLL4)
Cc1cnc(-c2cnc(NCCNc3ccc(C#N)cn3)nc2-c2ccc(Cl)cc2Cl)[nH]1 [CHIR99021, 6-[[2-[[4-(2,4-dichlorophenyl)-5-(5-methyl-1H-imidazol-2-yl)-2-pyrimidinyl]amino]ethyl]amino]-3-pyridinecarbonitrile] | 51.2±4.3 | reduced | not significantly changed | most highly expressed | – | – | –
DLL4: polypeptide comprising a mature human or mammalian peptide sequence encoded by a DLL4 gene; a Notch ligand | – | – | – | – | increases | decreases | further increased
